Source: US11345712B2, “Protein-targeting compounds and pharmaceutical compositions thereof, and their therapeutic applications” (BioTheryX, Inc., priority 2019, dated 2022)

What follows are molecules tested on MOLM-13 cells (assay: MOLM-13 cell viability assay (CellTiter-Glo)). Details: Homo sapiens, MOLM-13, 72 h, 3 days, concentration of 1 μM, read-out: Antiproliferative Activity (inhibition, MOLM-13 cell viability).
Format: cell-based
Summary of the method: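 Luminescent ATP read-out (CellTiter-Glo, 10 min with shaking) after 3-day compound or DMSO exposure at 37° C, 5% CO2. Cells plated at 2,500/well in RPMI 1640 plus 10% FBS.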
In the case of `Cc1ccc(N(C)C(=O)N(C)Cc2scc3c2CN(C2CCC(=O)NC2=O)C3=O)cc1Cl` (stereo not shown) [II-20, 1-(3-chloro-4-methylphenyl)-3-((5-(2,6-dioxopiperidin-3-yl)-4-oxo-5,6-dihydro-4H-thieno[3,4-c]pyrrol-1-yl)methyl)-1,3-dimethylurea], the cytotoxicity at 1 µM is reported as less than 25%.
Work on `Cc1ccc(CNC(=O)NCc2cc3c(s2)CN(C2CCC(=O)NC2=O)C3=O)cc1Cl` (stereo not shown) [II-21, 1-(3-chloro-4-methylbenzyl)-3-((5-(2,6-dioxopiperidin-3-yl)-4-oxo-5,6-dihydro-4H-thieno[2,3-c]pyrrol-2-yl)methyl)urea] yielded a cytotoxicity at 1 µM of 50 to 80%.
`Cc1ccc(N(C)C(=O)NCc2scc3c2CN(C2CCC(=O)NC2=O)C3=O)cc1Cl` (stereo not shown) [II-22, 1-(3-chloro-4-methylphenyl)-3-((5-(2,6-dioxopiperidin-3-yl)-4-oxo-5,6-dihydro-4H-thieno[3,4-c]pyrrol-1-yl)methyl)-1-methylurea] was tested, and the cytotoxicity at 1 µM was 50 to 80%.
`Cc1ccc(NCCCNCc2scc3c2CN(C2CCC(=O)NC2=O)C3=O)cc1Cl` (stereo not shown) [II-23, 3-(1-(((3-((3-chloro-4-methylphenyl)amino)propyl)amino)methyl)-4-oxo-4H-thieno[3,4-c]pyrrol-5(6H)-yl)piperidine-2,6-dione] showed a cytotoxicity at 1 µM of less than 25%.
For `Cc1ccc(CC(=O)NCc2scc3c2CN(C2CCC(=O)NC2=O)C3=O)cc1Cl` (stereo not shown) [II-24, 2-(3-chloro-4-methylphenyl)-N-((5-(2,6-dioxopiperidin-3-yl)-4-oxo-5,6-dihydro-4H-thieno[3,4-c]pyrrol-1-yl)methyl)acetamide], the cytotoxicity at 1 µM was less than 25%.
`O=C(Cc1ccc(F)cc1)NCc1scc2c1CN(C1CCC(=O)NC1=O)C2=O` (stereo not shown) [II-25, N-((5-(2,6-dioxopiperidin-3-yl)-4-oxo-5,6-dihydro-4H-thieno[3,4-c]pyrrol-1-yl)methyl)-2-(4-fluorophenyl)acetamide] showed a cytotoxicity at 1 µM of less than 25%.
With `Cc1cc(NC(=O)NCc2cc3c(s2)C(=O)N(C2CCC(=O)NC2=O)C3)ccc1N1CCOCC1` (stereo not shown) [II-26, 1-((5-(2,6-dioxopiperidin-3-yl)-6-oxo-5,6-dihydro-4H-thieno[2,3-c]pyrrol-2-yl)methyl)-3-(3-methyl-4-morpholinophenyl)urea] the cytotoxicity at 1 µM was less than 25%.
For `Cc1cc(NC(=O)NCc2cc3c(s2)C(=O)N(C2CCC(=O)NC2=O)C3)ccc1N1CCCC1` (stereo not shown) [II-27, 1-((5-(2,6-dioxopiperidin-3-yl)-6-oxo-5,6-dihydro-4H-thieno[2,3-c]pyrrol-2-yl)methyl)-3-(3-methyl-4-(pyrrolidin-1-yl)phenyl)urea], the cytotoxicity at 1 µM was less than 25%.
Work on `Cc1ccc(C(F)(F)C(=O)NCc2scc3c2CN(C2CCC(=O)NC2=O)C3=O)cc1Cl` (stereo not shown) [II-28, 2-(3-chloro-4-methylphenyl)-N-((5-(2,6-dioxopiperidin-3-yl)-4-oxo-5,6-dihydro-4H-thieno[3,4-c]pyrrol-1-yl)methyl)-2,2-difluoroacetamide] yielded a cytotoxicity at 1 µM of less than 25%.
`Cc1ccc(C(F)(F)C(=O)NCc2scc3c2CN([C@H]2CCCC(=O)NC2=O)C3=O)cc1Cl` [II-29, (S)-2-(3-chloro-4-methylphenyl)-N-((5-(2,7-dioxoazepan-3-yl)-4-oxo-5,6-dihydro-4H-thieno[3,4-c]pyrrol-1-yl)methyl)-2,2-difluoroacetamide] was tested, and the cytotoxicity at 1 µM was less than 25%.
Work on `Cc1ccc(CC(=O)NCc2cc3c(s2)C(=O)N(C2CCC(=O)NC2=O)C3)cc1Cl` (stereo not shown) [II-30, 2-(3-chloro-4-methylphenyl)-N-((5-(2,6-dioxopiperidin-3-yl)-6-oxo-5,6-dihydro-4H-thieno[2,3-c]pyrrol-2-yl)methyl)acetamide] yielded a cytotoxicity at 1 µM of less than 25%.
`Cc1ccc(NC(=O)NCCc2scc3c2CN(C2CCC(=O)NC2=O)C3=O)cc1Cl` (stereo not shown) [II-31, 1-(3-chloro-4-methylphenyl)-3-(2-(5-(2,6-dioxopiperidin-3-yl)-4-oxo-5,6-dihydro-4H-thieno[3,4-c]pyrrol-1-yl)ethyl)urea] showed a cytotoxicity at 1 µM greater than 80%.
In the case of `Cc1ccc(CNC(=O)NCCc2scc3c2CN(C2CCC(=O)NC2=O)C3=O)cc1Cl` (stereo not shown) [II-32, 1-(3-chloro-4-methylbenzyl)-3-(2-(5-(2,6-dioxopiperidin-3-yl)-4-oxo-5,6-dihydro-4H-thieno[3,4-c]pyrrol-1-yl)ethyl)urea], the cytotoxicity at 1 µM is reported as greater than 80%.
`Cc1ccc(C=CC(=O)NCc2cc3c(s2)C(=O)N(C2CCC(=O)NC2=O)C3)cc1Cl` (stereo not shown) [II-33, 3-(3-chloro-4-methylphenyl)-N-((5-(2,6-dioxopiperidin-3-yl)-6-oxo-5,6-dihydro-4H-thieno[2,3-c]pyrrol-2-yl)methyl)propenamide] showed a cytotoxicity at 1 µM of less than 25%.
In the case of `Cc1ccc(C=CC(=O)NCc2scc3c2CN(C2CCC(=O)NC2=O)C3=O)cc1Cl` (stereo not shown) [II-34, 3-(3-chloro-4-methylphenyl)-N-((5-(2,6-dioxopiperidin-3-yl)-4-oxo-5,6-dihydro-4H-thieno[3,4-c]pyrrol-1-yl)methyl)propenamide], the cytotoxicity at 1 µM is reported as greater than 80%.
`O=C1CCC(N2Cc3cc(CNC(=O)NCc4c(Cl)cccc4Cl)sc3C2=O)C(=O)N1` (stereo not shown) [II-36, 1-(2,6-dichlorobenzyl)-3-((5-(2,6-dioxopiperidin-3-yl)-6-oxo-5,6-dihydro-4H-thieno[2,3-c]pyrrol-2-yl)methyl)urea] showed a cytotoxicity at 1 µM of 50 to 80%.
`O=C1CCC(N2Cc3c(csc3CNC(=O)NCc3c(Cl)cccc3Cl)C2=O)C(=O)N1` (stereo not shown) [II-37, 1-(2,6-dichlorobenzyl)-3-((5-(2,6-dioxopiperidin-3-yl)-4-oxo-5,6-dihydro-4H-thieno[3,4-c]pyrrol-1-yl)methyl)urea] was tested, and the cytotoxicity at 1 µM was greater than 80%.
`Cc1ccc(C(F)(F)C(=O)NCc2cc3c(s2)C(=O)N(C2CCC(=O)NC2=O)C3)cc1Cl` (stereo not shown) [II-38, 2-(3-chloro-4-methylphenyl)-N-((5-(2,6-dioxopiperidin-3-yl)-6-oxo-5,6-dihydro-4H-thieno[2,3-c]pyrrol-2-yl)methyl)-2,2-difluoroacetamide] showed a cytotoxicity at 1 µM of less than 25%.
Molecule `Cc1ccc(NC(=S)NCc2cc3c(s2)C(=O)N(C2CCC(=O)NC2=O)C3)cc1Cl` (stereo not shown) [II-39, 1-(3-chloro-4-methylphenyl)-3-((5-(2,6-dioxopiperidin-3-yl)-6-oxo-5,6-dihydro-4H-thieno[2,3-c]pyrrol-2-yl)methyl)thiourea] has a cytotoxicity at 1 µM greater than 80%.
Work on `Cc1cnc(NC(=O)NCc2scc3c2CN(C2CCC(=O)NC2=O)C3=O)nc1C(F)(F)F` (stereo not shown) [II-40, 1-((5-(2,6-dioxopiperidin-3-yl)-4-oxo-5,6-dihydro-4H-thieno[3,4-c]pyrrol-1-yl)methyl)-3-(5-methyl-4-(trifluoromethyl)pyrimidin-2-yl)urea] yielded a cytotoxicity at 1 µM of less than 25%.
For `Cc1ccc(CCCC(=O)NCc2scc3c2CN(C2CCC(=O)NC2=O)C3=O)cc1Cl` (stereo not shown) [II-41, 4-(3-chloro-4-methylphenyl)-N-((5-(2,6-dioxopiperidin-3-yl)-4-oxo-5,6-dihydro-4H-thieno[3,4-c]pyrrol-1-yl)methyl)butanamide], the cytotoxicity at 1 µM was 25 to 50%.
`O=C1CCC(N2Cc3cc(CNC(=O)Nc4c(Cl)cccc4Cl)sc3C2=O)C(=O)N1` (stereo not shown) [II-42, 1-(2,6-dichlorophenyl)-3-((5-(2,6-dioxopiperidin-3-yl)-6-oxo-5,6-dihydro-4H-thieno[2,3-c]pyrrol-2-yl)methyl)urea] gave a cytotoxicity at 1 µM of less than 25%.
With `O=C1CCC(N2Cc3c(csc3CNC(=O)Nc3c(Cl)cccc3Cl)C2=O)C(=O)N1` (stereo not shown) [II-43, 1-(2,6-dichlorophenyl)-3-((5-(2,6-dioxopiperidin-3-yl)-4-oxo-5,6-dihydro-4H-thieno[3,4-c]pyrrol-1-yl)methyl)urea] the cytotoxicity at 1 µM was 25 to 50%.
`CN(C)c1cc(NC(=O)NCc2cc3c(s2)C(=O)N(C2CCC(=O)NC2=O)C3)ccc1F` (stereo not shown) [II-45, 1-(3-(dimethylamino)-4-fluorophenyl)-3-((5-(2,6-dioxopiperidin-3-yl)-6-oxo-5,6-dihydro-4H-thieno[2,3-c]pyrrol-2-yl)methyl)urea] showed a cytotoxicity at 1 µM greater than 80%.
In the case of `Cc1ccc(NC(=O)NCc2cc3c(s2)C(=O)N(C2CCC(=O)NC2=O)C3)cc1O` (stereo not shown) [II-46, 1-((5-(2,6-dioxopiperidin-3-yl)-6-oxo-5,6-dihydro-4H-thieno[2,3-c]pyrrol-2-yl)methyl)-3-(3-hydroxy-4-methylphenyl)urea], the cytotoxicity at 1 µM is reported as 25 to 50%.
`CCN(CC)c1cc(NC(=O)NCc2cc3c(s2)C(=O)N(C2CCC(=O)NC2=O)C3)ccc1C` (stereo not shown) [II-47, 1-(3-(diethylamino)-4-methylphenyl)-3-((5-(2,6-dioxopiperidin-3-yl)-6-oxo-5,6-dihydro-4H-thieno[2,3-c]pyrrol-2-yl)methyl)urea] was tested, and the cytotoxicity at 1 µM was greater than 80%.
In the case of `CN(C)c1cccc(NC(=O)NCc2cc3c(s2)C(=O)N(C2CCC(=O)NC2=O)C3)c1` (stereo not shown) [II-48, 1-(3-(dimethylamino)phenyl)-3-((5-(2,6-dioxopiperidin-3-yl)-6-oxo-5,6-dihydro-4H-thieno[2,3-c]pyrrol-2-yl)methyl)urea], the cytotoxicity at 1 µM is reported as greater than 80%.
With `Cc1cc(NC(=O)NCc2cc3c(s2)C(=O)N(C2CCC(=O)NC2=O)C3)cc(N(C)C)c1` (stereo not shown) [II-49, 1-(3-(dimethylamino)-5-methylphenyl)-3-((5-(2,6-dioxopiperidin-3-yl)-6-oxo-5,6-dihydro-4H-thieno[2,3-c]pyrrol-2-yl)methyl)urea] the cytotoxicity at 1 µM was greater than 80%.
`CN(C)c1cc(NC(=O)NCc2cc3c(s2)C(=O)N(C2CCC(=O)NC2=O)C3)cc(C(F)(F)F)c1` (stereo not shown) [II-50, 1-(3-(dimethylamino)-5-(trifluoromethyl)phenyl)-3-((5-(2,6-dioxopiperidin-3-yl)-6-oxo-5,6-dihydro-4H-thieno[2,3-c]pyrrol-2-yl)methyl)urea] was tested, and the cytotoxicity at 1 µM was greater than 80%.
`Cc1ccc(NC(=O)NCc2cc3c(s2)C(=O)N(C2CCC(=O)NC2=O)C3)cc1CN(C)C` (stereo not shown) [II-51, 1-(3-((dimethylamino)methyl)-4-methylphenyl)-3-((5-(2,6-dioxopiperidin-3-yl)-6-oxo-5,6-dihydro-4H-thieno[2,3-c]pyrrol-2-yl)methyl)urea] showed a cytotoxicity at 1 µM of less than 25%.
`CCN(CC)c1ccc(NC(=O)NCc2cc3c(s2)C(=O)N(C2CCC(=O)NC2=O)C3)cc1C` (stereo not shown) [II-52, 1-(4-(diethylamino)-3-methylphenyl)-3-((5-(2,6-dioxopiperidin-3-yl)-6-oxo-5,6-dihydro-4H-thieno[2,3-c]pyrrol-2-yl)methyl)urea] showed a cytotoxicity at 1 µM of less than 25%.
